The results in this text go back to US20170253562A1, “Nampt Inhibitors” (AbbVie Inc., priority 2011, published 2017).

The test deals with recombinant, human, C-terminally-His tagged NAMPT (Homo sapiens, UniProt P43490). Briefly: Time-Resolved Fluorescence Resonance Energy Transfer (TR-FRET) binding assay of NAMPT. As to conditions: 6.8 nM NAMPT, 200 nM probe (Oregon Green 488-conjugated APO866), 2-3 hours. As to the method:
Time-Resolved Fluorescence Resonance Energy Transfer (TR-FRET) Binding Assay of NAMPT
Plates were read with Envision (Laser Lantha low volume protocol) after 2 to 3 hours.

For orientation: IC50 means the concentration needed to halve the response being measured.

recombinant, human, C-terminally-His tagged NAMPT, sequence (P43490 whole entry): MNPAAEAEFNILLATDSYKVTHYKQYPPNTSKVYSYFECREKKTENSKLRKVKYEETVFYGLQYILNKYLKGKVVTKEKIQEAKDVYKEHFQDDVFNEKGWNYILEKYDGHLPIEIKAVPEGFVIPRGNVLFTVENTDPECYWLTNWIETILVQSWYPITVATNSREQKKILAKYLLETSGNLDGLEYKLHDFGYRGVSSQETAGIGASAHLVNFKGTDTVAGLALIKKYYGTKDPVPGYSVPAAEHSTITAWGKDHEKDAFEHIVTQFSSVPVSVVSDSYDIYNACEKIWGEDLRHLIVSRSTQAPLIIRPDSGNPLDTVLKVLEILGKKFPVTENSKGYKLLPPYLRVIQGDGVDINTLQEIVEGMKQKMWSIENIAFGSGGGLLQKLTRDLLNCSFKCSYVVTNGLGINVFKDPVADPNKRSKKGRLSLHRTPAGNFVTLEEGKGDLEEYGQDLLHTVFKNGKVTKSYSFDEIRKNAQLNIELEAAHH

As for `O=C(Nc1ccc(C(=O)N2CC3(CCOCC3)C2)nn1)N1Cc2ccccc2C1` [Example 18, N-[6-(7-oxa-2-azaspiro[3.5]non-2-ylcarbonyl)pyridazin-3-yl]-1,3-dihydro-2H-isoindole-2-carboxamide], the IC50 turned out to be 388 nM.

For `O=C(Nc1ccc(C(=O)N2CCCC3(COC3)C2)nn1)N1Cc2ccccc2C1` [Example 14, N-[6-(2-oxa-6-azaspiro[3.5]non-6-ylcarbonyl)pyridazin-3-yl]-1,3-dihydro-2H-isoindole-2-carboxamide], the IC50 stood at 885 nM.

As for `O=C(NCc1nnn2c1CNCCC2)c1ccc(NC(=O)N2Cc3ccccc3C2)nn1` [Example 49, N-{6-[(5,6,7,8-tetrahydro-4H-[1,2,3]triazolo[1,5-a][1,4]diazepin-3-ylmethyl)carbamoyl]pyridazin-3-yl}-1,3-dihydro-2H-isoindole-2-carboxamide], the IC50 was 4700 nM.

In the case of `O=C(NC[C@H]1CC2CNCCN2C1)c1ccc(NC(=O)N2Cc3ccccc3C2)nn1` (stereo partly drawn) [Example 27, N-(6-{[(7R)-octahydropyrrolo[1,2-a]pyrazin-7-ylmethyl]carbamoyl}pyridazin-3-yl)-1,3-dihydro-2H-isoindole-2-carboxamide], the concentration for half-maximal inhibition (IC50) worked out at 602 nM.

As to `O=C(Nc1ccc(C(=O)N2CCC3(CCNC3)CC2)nn1)N1Cc2ccccc2C1` [Example 23, N-[6-(2,8-diazaspiro[4.5]dec-8-ylcarbonyl)pyridazin-3-yl]-1,3-dihydro-2H-isoindole-2-carboxamide], the IC50 was 140 nM.

Turning to `O=C(NCc1nnc2n1CCNC2)c1ccc(NC(=O)N2Cc3ccccc3C2)nn1` [Example 42, N-{6-[(5,6,7,8-tetrahydro[1,2,4]triazolo[4,3-a]pyrazin-3-ylmethyl)carbamoyl]pyridazin-3-yl}-1,3-dihydro-2H-isoindole-2-carboxamide], the IC50 was found to be 1970 nM.

As for `O=C(NCC1CC2(CNC2)CO1)c1ccc(NC(=O)N2Cc3ccccc3C2)nn1` (centres unmarked) [Example 45, N-{6-[(6-oxa-2-azaspiro[3.4]oct-7-ylmethyl)carbamoyl]pyridazin-3-yl}-1,3-dihydro-2H-isoindole-2-carboxamide], the IC50 stood at 2140 nM.

Consider `O=C(Nc1ccc(C(=O)N2CC3(CCNCC3)C2)nn1)N1Cc2ccccc2C1` [Example 29, N-[6-(2,7-diazaspiro[3.5]non-2-ylcarbonyl)pyridazin-3-yl]-1,3-dihydro-2H-isoindole-2-carboxamide], for which the half-maximal inhibitory concentration (IC50) came out at 454 nM.

`O=C(NCC1COC2(CCNCC2)C1)c1ccc(NC(=O)N2Cc3ccccc3C2)cc1` (centres unmarked) [Example 7, N-{4-[(1-oxa-8-azaspiro[4.5]dec-3-ylmethyl)carbamoyl]phenyl}-1,3-dihydro-2H-isoindole-2-carboxamide]: the half-inhibitory concentration (IC50) came out at 7.39 nM.

`O=C(NC1COC2(CCNCC2)C1)c1ccc(NC(=O)N2Cc3ccccc3C2)nn1` (centres unmarked) [Example 38, N-[6-(1-oxa-8-azaspiro[4.5]dec-3-ylcarbamoyl)pyridazin-3-yl]-1,3-dihydro-2H-isoindole-2-carboxamide]: the IC50 was determined as 869 nM.

Regarding `N#CC1COC2(CCN(C(=O)c3ccc(NC(=O)N4Cc5ccccc5C4)nn3)CC2)C1` (centres unmarked) [Example 17, N-{6-[(3-cyano-1-oxa-8-azaspiro[4.5]dec-8-yl)carbonyl]pyridazin-3-yl}-1,3-dihydro-2H-isoindole-2-carboxamide], the IC50 was determined as 158 nM.
